Source: ChEMBL document CHEMBL4507282, “Data for DCP probe BI-1950” (2021)
Activity calls are given as the source filed them. The calls are words filed in the database; no cut-off is given here.

How the values were obtained:
Integrin alpha-L = Integrin alpha-L (Homo sapiens, UniProt P20701); assay: ITGAL binding assay
[1] = test system: Tyrosine-protein kinase ABL1 (Homo sapiens), P00519 [F317I]; conditions: Compound concentration 1000.0 nM
[2] = test system: Tyrosine-protein kinase ABL1 (Homo sapiens), P00519 [Q252H]; conditions: Compound concentration 1000.0 nM
[3] = test system: Tyrosine-protein kinase ABL1 (Homo sapiens), P00519 [T315I]; conditions: Compound concentration 1000.0 nM
[4] = test system: Tyrosine-protein kinase ABL1 (Homo sapiens), P00519 [Y253F]; conditions: Compound concentration 1000.0 nM
[5] = target: Cyclin-dependent kinase-like 1 (Homo sapiens) (UniProt Q00532); conditions: Compound concentration 1000.0 nM
[6] = target: Cyclin-dependent kinase-like 5 (Homo sapiens) (UniProt O76039); conditions: Compound concentration 1000.0 nM
[7] = target: Casein kinase I isoform alpha (Homo sapiens) (UniProt P48729); conditions: Compound concentration 1000.0 nM
[8] = target: Casein kinase I isoform epsilon (Homo sapiens) (UniProt P49674); conditions: Compound concentration 1000.0 nM
[9] = target: Discoidin domain-containing receptor 2 (Homo sapiens) (UniProt Q16832); conditions: Compound concentration 1000.0 nM
[10] = target: Serine/threonine-protein kinase/endoribonuclease IRE1 (Homo sapiens) (UniProt O75460); conditions: Compound concentration 1000.0 nM
[11] = target: Fibroblast growth factor receptor 2 (Homo sapiens) (UniProt P21802); conditions: Compound concentration 1000.0 nM
[12] = test system: Mast/stem cell growth factor receptor Kit (Homo sapiens), P10721 [D816V]; conditions: Compound concentration 1000.0 nM
[13] = test system: Mast/stem cell growth factor receptor Kit (Homo sapiens), P10721 [V559D]; conditions: Compound concentration 1000.0 nM
[14] = target: Mitogen-activated protein kinase kinase kinase kinase 4 (Homo sapiens) (UniProt O95819); conditions: Compound concentration 1000.0 nM
[15] = target: Myosin light chain kinase, smooth muscle (Homo sapiens) (UniProt Q15746); conditions: Compound concentration 1000.0 nM
[16] = target: Serine/threonine-protein kinase Nek7 (Homo sapiens) (UniProt Q8TDX7); conditions: Compound concentration 1000.0 nM
[17] = target: Cyclin-dependent kinase 14 (Homo sapiens) (UniProt O94921); conditions: Compound concentration 1000.0 nM
[18] = test system: Phosphatidylinositol 4,5-bisphosphate 3-kinase catalytic subunit alpha isoform (Homo sapiens), P42336 [C420R]; conditions: Compound concentration 1000.0 nM
[19] = target: Serine/threonine-protein kinase PknB (Mycobacterium tuberculosis) (UniProt P9WI81); conditions: Compound concentration 1000.0 nM
[20] = target: SRSF protein kinase 2 (Homo sapiens) (UniProt P78362); conditions: Compound concentration 1000.0 nM
[21] = target: Serine/threonine-protein kinase 35 (Homo sapiens) (UniProt Q8TDR2); conditions: Compound concentration 1000.0 nM
[22] = target: Serine/threonine-protein kinase TAO2 (Homo sapiens) (UniProt Q9UL54); conditions: Compound concentration 1000.0 nM
[23] = target: Dual specificity testis-specific protein kinase 1 (Homo sapiens) (UniProt Q15569); conditions: Compound concentration 1000.0 nM
[24] = target: Angiopoietin-1 receptor (Homo sapiens) (UniProt Q02763); conditions: Compound concentration 1000.0 nM
[25] = target: Activated CDC42 kinase 1 (Homo sapiens) (UniProt Q07912); conditions: Compound concentration 1000.0 nM
[26] = target: Serine/threonine-protein kinase TNNI3K (Homo sapiens) (UniProt Q59H18); conditions: Compound concentration 1000.0 nM
[27] = target: Serine/threonine-protein kinase 32C (Homo sapiens) (UniProt Q86UX6); conditions: Compound concentration 1000.0 nM
[28] = target: 5-hydroxytryptamine receptor 4 (Cavia porcellus) (UniProt O70528); assay: 5HT4/GPIG Eurofins-Panlabs selectivity data (BI); conditions: Compound concentration 10.0 uM
[29] = target: Type-1 angiotensin II receptor (Oryctolagus cuniculus) (UniProt P34976); assay: AT1 Eurofins-Panlabs selectivity data (BI); conditions: Homo sapiens; Compound concentration 10.0 uM
[30] = target: Voltage-dependent N-type calcium channel subunit alpha-1B (Rattus norvegicus) (UniProt Q02294); assay: CA+/N/RA Eurofins-Panlabs selectivity data (BI); conditions: Compound concentration 10.0 uM
[31] = target: D(1B) dopamine receptor (Homo sapiens) (UniProt P21918); assay: D5/HU Eurofins-Panlabs selectivity data (BI); conditions: Compound concentration 10.0 uM
[32] = target: Histamine H2 receptor (Homo sapiens) (UniProt P25021); assay: H2/H Eurofins-Panlabs selectivity data (BI); conditions: Compound concentration 10.0 uM
[33] = target: Muscarinic acetylcholine receptor M1 (Rattus norvegicus) (UniProt P08482); assay: MUSCARIN/OTM Eurofins-Panlabs selectivity data (BI); conditions: Compound concentration 10.0 uM
[34] = target: T1, Thromboxane-A synthase (Homo sapiens) (UniProt P24557); assay: THRO SYN(HU) Eurofins-Panlabs selectivity data (BI)
T1 sequence (whole entry): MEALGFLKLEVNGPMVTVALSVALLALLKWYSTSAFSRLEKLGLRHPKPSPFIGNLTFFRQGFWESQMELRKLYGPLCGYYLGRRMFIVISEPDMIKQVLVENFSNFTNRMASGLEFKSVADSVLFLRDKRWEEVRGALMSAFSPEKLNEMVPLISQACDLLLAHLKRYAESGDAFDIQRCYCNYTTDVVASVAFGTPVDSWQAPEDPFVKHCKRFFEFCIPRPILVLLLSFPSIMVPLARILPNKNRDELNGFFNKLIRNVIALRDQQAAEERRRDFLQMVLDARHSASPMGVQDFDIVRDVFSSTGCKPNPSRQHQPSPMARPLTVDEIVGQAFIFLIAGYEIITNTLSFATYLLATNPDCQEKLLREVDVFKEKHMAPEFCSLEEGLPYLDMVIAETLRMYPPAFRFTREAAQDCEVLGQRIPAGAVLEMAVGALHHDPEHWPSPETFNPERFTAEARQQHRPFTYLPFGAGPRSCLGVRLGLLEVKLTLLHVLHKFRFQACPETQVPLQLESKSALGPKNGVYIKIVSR

Chain of Casein kinase I isoform alpha (Homo sapiens) (P48729 2-337 limits assumed): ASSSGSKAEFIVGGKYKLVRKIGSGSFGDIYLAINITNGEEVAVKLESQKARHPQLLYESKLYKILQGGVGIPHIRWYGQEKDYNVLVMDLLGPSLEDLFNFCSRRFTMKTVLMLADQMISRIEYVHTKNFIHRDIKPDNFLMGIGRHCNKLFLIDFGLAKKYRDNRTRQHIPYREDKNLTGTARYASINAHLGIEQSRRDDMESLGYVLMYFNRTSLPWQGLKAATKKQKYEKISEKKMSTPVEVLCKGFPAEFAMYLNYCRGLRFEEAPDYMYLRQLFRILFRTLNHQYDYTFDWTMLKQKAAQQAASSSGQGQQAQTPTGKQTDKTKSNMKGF
Chain of Serine/threonine-protein kinase TNNI3K (Homo sapiens) (Q59H18 whole entry): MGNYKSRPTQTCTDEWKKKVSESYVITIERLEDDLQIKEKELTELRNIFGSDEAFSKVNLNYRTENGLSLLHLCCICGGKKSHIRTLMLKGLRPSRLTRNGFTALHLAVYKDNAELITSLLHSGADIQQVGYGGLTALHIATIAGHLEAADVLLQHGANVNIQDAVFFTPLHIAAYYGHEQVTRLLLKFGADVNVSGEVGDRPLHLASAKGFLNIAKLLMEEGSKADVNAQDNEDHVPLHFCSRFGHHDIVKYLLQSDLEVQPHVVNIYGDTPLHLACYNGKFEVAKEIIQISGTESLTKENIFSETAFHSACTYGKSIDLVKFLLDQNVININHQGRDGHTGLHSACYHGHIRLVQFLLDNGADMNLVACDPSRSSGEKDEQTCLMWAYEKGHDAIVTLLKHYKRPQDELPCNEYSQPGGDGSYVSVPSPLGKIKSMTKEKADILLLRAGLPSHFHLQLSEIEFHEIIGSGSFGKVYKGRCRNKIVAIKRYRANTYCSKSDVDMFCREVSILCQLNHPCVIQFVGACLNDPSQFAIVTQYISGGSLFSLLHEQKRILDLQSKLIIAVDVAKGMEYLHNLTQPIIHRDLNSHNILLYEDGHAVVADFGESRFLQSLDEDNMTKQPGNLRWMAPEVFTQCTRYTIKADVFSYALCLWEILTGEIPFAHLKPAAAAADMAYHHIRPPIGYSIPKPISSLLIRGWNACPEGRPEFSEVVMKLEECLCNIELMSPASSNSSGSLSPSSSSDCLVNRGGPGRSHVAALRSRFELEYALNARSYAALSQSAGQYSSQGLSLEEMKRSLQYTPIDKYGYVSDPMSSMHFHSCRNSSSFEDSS
Chain of Serine/threonine-protein kinase PknB (Mycobacterium tuberculosis) (P9WI81 whole entry): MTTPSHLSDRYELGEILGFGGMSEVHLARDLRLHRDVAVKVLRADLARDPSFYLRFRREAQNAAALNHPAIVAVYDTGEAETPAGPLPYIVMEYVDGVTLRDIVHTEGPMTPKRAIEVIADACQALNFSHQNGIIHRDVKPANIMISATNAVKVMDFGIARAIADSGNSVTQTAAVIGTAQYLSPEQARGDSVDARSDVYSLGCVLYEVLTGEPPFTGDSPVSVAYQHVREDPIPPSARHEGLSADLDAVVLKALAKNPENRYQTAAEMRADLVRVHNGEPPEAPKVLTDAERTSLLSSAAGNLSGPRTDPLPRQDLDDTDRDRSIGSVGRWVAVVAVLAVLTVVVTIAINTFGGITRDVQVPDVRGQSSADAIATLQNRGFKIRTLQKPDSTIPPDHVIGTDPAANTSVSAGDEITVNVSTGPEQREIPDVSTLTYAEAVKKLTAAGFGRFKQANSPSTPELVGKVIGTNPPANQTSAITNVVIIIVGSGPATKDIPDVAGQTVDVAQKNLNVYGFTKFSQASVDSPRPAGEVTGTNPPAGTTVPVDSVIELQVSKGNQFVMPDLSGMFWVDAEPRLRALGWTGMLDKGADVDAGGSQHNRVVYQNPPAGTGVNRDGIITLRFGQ
Chain of Mast/stem cell growth factor receptor Kit (Homo sapiens), P10721 [V559D] (P10721 whole entry V559D): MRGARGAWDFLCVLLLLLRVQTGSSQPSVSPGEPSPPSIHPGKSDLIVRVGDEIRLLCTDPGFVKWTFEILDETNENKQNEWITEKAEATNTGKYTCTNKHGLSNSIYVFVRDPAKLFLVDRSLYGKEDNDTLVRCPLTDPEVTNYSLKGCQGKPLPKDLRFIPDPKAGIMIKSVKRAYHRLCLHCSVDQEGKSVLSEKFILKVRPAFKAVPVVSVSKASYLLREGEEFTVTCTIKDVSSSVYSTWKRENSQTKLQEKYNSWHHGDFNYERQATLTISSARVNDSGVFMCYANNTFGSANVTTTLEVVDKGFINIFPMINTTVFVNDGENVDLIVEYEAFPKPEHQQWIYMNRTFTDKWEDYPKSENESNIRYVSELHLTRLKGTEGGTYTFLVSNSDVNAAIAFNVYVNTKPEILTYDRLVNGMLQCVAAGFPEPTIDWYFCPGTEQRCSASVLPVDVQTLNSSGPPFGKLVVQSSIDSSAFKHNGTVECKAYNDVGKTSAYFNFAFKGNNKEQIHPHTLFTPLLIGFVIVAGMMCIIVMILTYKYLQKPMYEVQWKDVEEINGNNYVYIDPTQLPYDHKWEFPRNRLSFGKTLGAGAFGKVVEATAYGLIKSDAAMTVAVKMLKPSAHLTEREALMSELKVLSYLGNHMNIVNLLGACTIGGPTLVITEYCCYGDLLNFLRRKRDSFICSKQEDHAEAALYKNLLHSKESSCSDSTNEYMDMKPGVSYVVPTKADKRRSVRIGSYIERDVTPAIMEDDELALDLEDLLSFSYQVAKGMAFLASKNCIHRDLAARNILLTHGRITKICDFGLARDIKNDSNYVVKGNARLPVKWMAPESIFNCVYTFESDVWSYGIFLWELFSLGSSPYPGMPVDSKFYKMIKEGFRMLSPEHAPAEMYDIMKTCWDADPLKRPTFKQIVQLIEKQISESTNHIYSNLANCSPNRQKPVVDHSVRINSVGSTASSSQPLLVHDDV
Chain of Phosphatidylinositol 4,5-bisphosphate 3-kinase catalytic subunit alpha isoform (Homo sapiens), P42336 [C420R] (P42336 whole entry C420R, canonical isoform): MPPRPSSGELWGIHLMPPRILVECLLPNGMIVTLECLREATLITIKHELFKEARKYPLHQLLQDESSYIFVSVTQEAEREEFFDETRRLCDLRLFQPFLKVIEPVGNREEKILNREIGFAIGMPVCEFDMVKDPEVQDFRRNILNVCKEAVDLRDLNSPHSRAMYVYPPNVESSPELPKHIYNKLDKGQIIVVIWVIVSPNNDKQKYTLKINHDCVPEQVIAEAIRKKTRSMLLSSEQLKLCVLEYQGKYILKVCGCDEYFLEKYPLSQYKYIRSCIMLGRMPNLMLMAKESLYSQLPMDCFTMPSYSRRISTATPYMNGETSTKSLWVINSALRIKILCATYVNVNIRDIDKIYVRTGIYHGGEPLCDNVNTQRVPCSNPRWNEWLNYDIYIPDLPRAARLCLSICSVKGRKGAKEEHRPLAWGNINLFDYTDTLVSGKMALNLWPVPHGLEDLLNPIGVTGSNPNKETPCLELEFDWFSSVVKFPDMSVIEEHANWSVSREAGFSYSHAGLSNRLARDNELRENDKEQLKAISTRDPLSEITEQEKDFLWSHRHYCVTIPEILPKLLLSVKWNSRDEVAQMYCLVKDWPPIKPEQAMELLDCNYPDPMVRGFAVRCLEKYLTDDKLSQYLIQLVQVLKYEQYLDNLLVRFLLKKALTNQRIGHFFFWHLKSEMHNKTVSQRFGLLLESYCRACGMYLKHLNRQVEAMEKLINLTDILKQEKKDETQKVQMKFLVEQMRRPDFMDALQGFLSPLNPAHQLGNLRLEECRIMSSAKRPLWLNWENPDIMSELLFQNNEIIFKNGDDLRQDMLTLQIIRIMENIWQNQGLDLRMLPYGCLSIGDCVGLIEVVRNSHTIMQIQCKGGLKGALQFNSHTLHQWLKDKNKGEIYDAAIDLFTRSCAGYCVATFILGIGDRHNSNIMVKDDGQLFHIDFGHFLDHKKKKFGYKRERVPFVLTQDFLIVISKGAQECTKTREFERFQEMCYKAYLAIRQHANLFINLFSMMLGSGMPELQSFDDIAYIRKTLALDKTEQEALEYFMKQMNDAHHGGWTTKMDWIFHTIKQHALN
Chain of Fibroblast growth factor receptor 2 (Homo sapiens) (P21802 22-821 limits assumed): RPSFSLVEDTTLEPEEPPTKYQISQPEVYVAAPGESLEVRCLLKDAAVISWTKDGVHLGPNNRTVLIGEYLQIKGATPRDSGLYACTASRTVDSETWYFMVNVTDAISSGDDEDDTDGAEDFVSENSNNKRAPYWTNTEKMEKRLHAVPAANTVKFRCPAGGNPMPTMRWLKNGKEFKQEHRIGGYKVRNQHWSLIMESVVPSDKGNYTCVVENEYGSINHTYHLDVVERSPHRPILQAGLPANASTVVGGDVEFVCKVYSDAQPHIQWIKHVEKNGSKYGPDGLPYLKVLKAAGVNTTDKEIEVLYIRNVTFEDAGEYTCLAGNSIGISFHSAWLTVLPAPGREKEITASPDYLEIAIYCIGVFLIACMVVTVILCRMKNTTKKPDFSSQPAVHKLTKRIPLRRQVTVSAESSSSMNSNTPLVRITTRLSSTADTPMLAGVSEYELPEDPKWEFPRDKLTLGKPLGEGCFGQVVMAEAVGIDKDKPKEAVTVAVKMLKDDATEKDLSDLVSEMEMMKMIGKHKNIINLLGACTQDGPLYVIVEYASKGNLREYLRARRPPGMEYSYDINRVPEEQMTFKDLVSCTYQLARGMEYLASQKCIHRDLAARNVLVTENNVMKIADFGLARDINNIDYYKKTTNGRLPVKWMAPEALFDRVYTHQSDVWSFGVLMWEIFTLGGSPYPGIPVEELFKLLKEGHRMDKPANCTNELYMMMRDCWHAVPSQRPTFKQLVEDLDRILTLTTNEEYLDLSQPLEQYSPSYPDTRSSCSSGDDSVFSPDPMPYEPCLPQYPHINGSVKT
Chain of Cyclin-dependent kinase-like 1 (Homo sapiens) (Q00532 whole entry): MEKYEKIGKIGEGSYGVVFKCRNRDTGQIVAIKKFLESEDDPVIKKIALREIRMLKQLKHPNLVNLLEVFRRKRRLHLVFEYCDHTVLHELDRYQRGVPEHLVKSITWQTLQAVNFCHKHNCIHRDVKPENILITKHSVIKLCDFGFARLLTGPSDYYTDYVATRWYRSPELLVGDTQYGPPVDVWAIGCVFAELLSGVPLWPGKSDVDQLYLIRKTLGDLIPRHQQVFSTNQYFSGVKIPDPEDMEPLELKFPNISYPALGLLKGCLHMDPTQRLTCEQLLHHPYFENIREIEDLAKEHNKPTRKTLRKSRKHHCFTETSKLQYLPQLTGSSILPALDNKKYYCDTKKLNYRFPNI

| Structure (SMILES) | Kd (Integrin alpha-L) | residual activity [1] [%] | residual activity [2] [%] | residual activity [3] [%] | residual activity [4] [%] | residual activity [5] [%] | residual activity [6] [%] | residual activity [7] [%] | residual activity [8] [%] | residual activity [9] [%] | residual activity [10] [%] | residual activity [11] [%] | residual activity [12] [%] | residual activity [13] [%] | residual activity [14] [%] | residual activity [15] [%] | residual activity [16] [%] | residual activity [17] [%] | residual activity [18] [%] | residual activity [19] [%] | other results |
| --- | --- | --- | --- | --- | --- | --- | --- | --- | --- | --- | --- | --- | --- | --- | --- | --- | --- | --- | --- | --- | --- |
| C[C@@]1(Cc2ccc(C#N)cc2)C(=O)N(c2cc(Cl)cc(Cl)c2)c2ncc(C(=O)NC3(c4nc(C5CCC5)no4)CC3)n21 [BI 9446] | > 1000 nM (not active) | 94 | 89 | 100 | 95 | 100 | 100 | 100 | 100 | 100 | 82 | 100 | 100 | 99 | 91 | 100 | 100 | 100 | 89 | 96 | residual activity [20]: 100%; residual activity [21]: 100%; residual activity [22]: 100%; residual activity [23]: 100%; residual activity [24]: 92%; residual activity [25]: 86%; residual activity [26]: 72%; residual activity [27]: 99% |
| C[C@H](NC(=O)c1cnc2n1[C@](C)(Cc1ccc(C#N)cc1)C(=O)N2c1cc(Cl)c(F)c(Cl)c1)C(=O)NC1(c2ccccn2)CC1 [BI 1950] | 9 nM (active) | 100 | 90 | 85 | 100 | 73 | 100 | 100 | 82 | 100 | 96 | 100 | 100 | 91 | 100 | 100 | 100 | 100 | 93 | 100 | residual activity [28]: 83%; residual activity [29]: 90%; residual activity [30]: 102%; residual activity [31]: 86%; residual activity [32]: 74%; residual activity [33]: 77%; residual activity ([34]; Compound concentration 0.03 uM): 94%; residual activity ([34]; Compound concentration 0.1 uM): 93%; residual activity ([34]; Compound concentration 0.3 uM): 91%; residual activity ([34]; Compound concentration 1.0 uM): 82%; residual activity ([34]; Compound concentration 3.0 uM): 74%; residual activity ([34]; Compound concentration 10.0 uM): 47%; residual activity [20]: 100%; residual activity [21]: 100%; residual activity [22]: 92%; residual activity [23]: 100%; residual activity [24]: 91%; residual activity [25]: 94%; residual activity [26]: 65%; residual activity [27]: 100% |
